Experimental findings from PubChem BioAssay AID1199 (EPA DSSTox, 2008) are described below.

Calls of active or inactive are those of the source.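 The calls were made as follows: active = a tumour-causing dose and a tumour site recorded for mice in at least one sex group; inconclusive = only government mouse studies exist and were judged inadequate; inactive = mouse studies exist but none gave tumours.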

The test system of the data set is mouse carcinogenicity bioassay, TD50 from CPDB. Nature of the data set: DSSTox (CPDBAS) Carcinogenic Potency Database Summary Mouse Bioassay Results. Summed up: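 Values are TD50 carcinogenic potencies from mouse chronic bioassays, taking the most positive result for each sex-species. Sources are published literature and NCI/NTP studies; target sites reflect author-reported positive findings.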

Where [1] appears, read: TD50_Mouse_Note: no positive results, TargetSites_Mouse_Female: no positive results.
[2] abbreviates: TD50_Mouse_Note: TD50 is harmonic mean of more than one positive test, TargetSites_Mouse_Female: liver.
Where [3] appears, read: TD50_Mouse_Note: TD50 is harmonic mean of more than one positive test, TargetSites_Mouse_Female: liver, lung, stomach.
Where [4] appears, read: TargetSites_Mouse_Female: liver.
Where [5] appears, read: TD50_Mouse_Note: TD50 is harmonic mean of more than one positive test, TargetSites_Mouse_Female: stomach.
The mark [6] stands for this setting: TargetSites_Mouse_Female: no positive results.
The mark [7] stands for this setting: TD50_Mouse_Note: TD50 is harmonic mean of more than one positive test, TargetSites_Mouse_Female: no positive results.

Regarding `CCCCNC(=O)NS(=O)(=O)c1ccc(C)cc1`, the outcome under setting [1] is “inactive; no positive results”.

As for `O=[N+]([O-])c1ccc(-c2cnc3ccccn23)o1`, the Potency (TD50_Mouse_Note: TD50 is harmonic mean of more than one positive test, TargetSites_Mouse_Female: esophagus, stomach) is 0.118 mmol/kg/day.

With `ClC1=C(Cl)C2(Cl)C3C(Cl)OC(Cl)C3C1(Cl)C2(Cl)Cl` (configuration not stated), the outcome under setting [1] is “inactive; no positive results”.

Regarding `CCCCC(CC)COC(=O)CCCCC(=O)OCC(CC)CCCC` (configuration not stated), under setting [2], the Potency was 10.5 mmol/kg/day.

For `CCOC(=O)C(C)(C)Oc1ccc(Cl)cc1`, the outcome under setting [1] is “inactive; no positive results”.

As to `NC(=O)CCCCC(N)=O`, the outcome under setting [1] is “inactive; no positive results”.

In the case of `NS(=O)(=O)c1cc(C(=O)O)c(NCc2ccco2)cc1Cl`, the Potency (TargetSites_Mouse_Female: mammary gland) is 2.21 mmol/kg/day.

For `CCc1ccc(C(c2ccc(CC)cc2)C(Cl)Cl)cc1`, the outcome under setting [1] is “inactive; no positive results”.

Regarding `COP(=O)(OC)O/C(=C\Cl)c1cc(Cl)c(Cl)cc1Cl`, the Potency (TargetSites_Mouse_Female: no positive results - CPDB evaluation based on NCI Technical Report) was 0.623 mmol/kg/day.

On to `Cn1c(N)nc2c3cccnc3ccc21`, for which the Potency under setting [3] was 0.0989 mmol/kg/day.

As for `C=CC=C`, the Potency (TD50_Mouse_Note: TD50 is harmonic mean of more than one positive test, greater than ten-fold variation among TD50 values for positive res, TargetSites_Mouse_Female: harderian gland, hematopoietic system, liver, lung, mammary gland, ovary, stomach, vascular system) is 0.257 mmol/kg/day.

As for `COC(=O)C(c1ccccc1)C1CCCCN1N=O` (configuration not stated), the outcome under setting [1] was “inactive; no positive results”.

Regarding `CC[C@H]1OC(=O)[C@H](C)[C@@H](O[C@H]2C[C@@](C)(OC)[C@@H](O)[C@H](C)O2)[C@H](C)[C@@H](O[C@@H]2O[C@H](C)C[C@H](N(C)C)[C@H]2O)[C@](C)(O)C[C@@H](C)C(=O)[C@H](C)[C@@H](O)[C@]1(C)O`, the outcome under setting [1] was “inactive; no positive results”.

Turning to `[O-][Cl+]O`, under setting [1], the outcome is “inactive; no positive results”.

Take `ClC(Cl)(Cl)c1ccccc1`: for the setting “TargetSites_Mouse_Female: hematopoietic system, lung, stomach”, the Potency is 0.00203 mmol/kg/day.

As to `ClC(Cl)C(Cl)(Cl)Cl`, the Potency under setting [2] is 0.283 mmol/kg/day.

Take `C[C@]12CC[C@H](OS(=O)(=O)O)CC1=CC[C@@H]1[C@@H]2CC[C@]2(C)C(=O)CC[C@@H]12`: the outcome under setting [1] is “inactive; no positive results”.

As for `Nc1ccc(Cc2ccc(N)cc2)cc1`, the Potency (TD50_Mouse_Note: TD50 is harmonic mean of more than one positive test, TargetSites_Mouse_Female: hematopoietic system, liver, thyroid gland) was 0.119 mmol/kg/day.

For the molecule `C=CCOC(=O)CC(C)C`, the Potency (TargetSites_Mouse_Female: hematopoietic system) was 0.442 mmol/kg/day.

With `C=CCc1ccc(OC)c(OC)c1`, under setting [2], the Potency was 0.108 mmol/kg/day.

Regarding `O=C([O-])C(=O)O.O=C([O-])C(=O)O.[K+].[K+].[O]=[Ti]`, the outcome under setting [1] is “inactive; no positive results”.

`O=C1NC(=O)C(c2ccccc2)(c2ccccc2)N1`: the Potency under setting [4] is 0.234 mmol/kg/day.

For `NC(=O)N(CCO)N=O`, the Potency (TD50_Mouse_Note: TD50 is harmonic mean of more than one positive test, TargetSites_Mouse_Female: hematopoietic system) is 0.00615 mmol/kg/day.

As for `NNC=O`, the Potency (TD50_Mouse_Note: TD50 is harmonic mean of more than one positive test, harmonic mean of TD50 includes a value for upper 99% confidence li, TargetSites_Mouse_Female: lung) was 0.606 mmol/kg/day.

Take `CCCCCNN`: the Potency (TargetSites_Mouse_Female: lung, vascular system) was 0.0423 mmol/kg/day.

On to `O=C(O)CC[N+](=O)[O-]`, for which the outcome under setting [1] is “inactive; no positive results”.

For the molecule `O=S(=O)(O)c1cc(S(=O)(=O)O)c2c(N=Nc3ccccc3)c(O)ccc2c1`, the outcome under setting [1] was “inactive; no positive results”.

In the case of `CC(=O)NN`, the Potency (TD50_Mouse_Note: TD50 is harmonic mean of more than one positive test, TargetSites_Mouse_Female: lung) was 0.133 mmol/kg/day.

For `ClCc1cccnc1`, the Potency under setting [5] is 1.4 mmol/kg/day.

`C=C(C)[C@H]1CC=C(C)CC1`: the outcome under setting [1] was “inactive; no positive results”.

`C[C@@H]1Cc2c(Cl)cc(C(=O)N[C@@H](Cc3ccccc3)C(=O)O)c(O)c2C(=O)O1`: the Potency under setting [2] is 0.0159 mmol/kg/day.

In the case of `CCC[CH2][Sn]([CH2]CCC)([O]C(C)=O)[O]C(C)=O`, the outcome under setting [1] is “inactive; no positive results”.

On to `O=[N+]([O-])c1cc(N(CCO)CCO)ccc1NCCO`, for which the outcome under setting [1] was “inactive; no positive results”.

Consider `CC(C)C/C=N/N(C)C=O`, for which, where the note is “TD50_Mouse_Note: TD50 is harmonic mean of more than one positive test, TargetSites_Mouse_Female: gall bladder, liver, lung”, the Potency is 0.0157 mmol/kg/day.

Take `CNC(=O)CSP(=S)(OC)OC`: the outcome under setting [1] was “inactive; no positive results”.

On to `CCN(CC)C(=O)c1cccc(C)c1`, for which the outcome under setting [1] was “inactive; no positive results”.

As to `COc1ccc([N+](=O)[O-])cc1N=Nc1c(O)c(C(=O)Nc2cccc([N+](=O)[O-])c2)cc2ccccc12`, the outcome under setting [1] is “inactive; no positive results”.

On to `Cc1ccc(NC(N)=O)cc1`, for which the Potency under setting [6] is 1.37 mmol/kg/day.

Consider `Cc1cccn2c1nc1ccc(N)nc12`, for which the Potency (TD50_Mouse_Note: TD50 is harmonic mean of more than one positive test, TargetSites_Mouse_Female: liver, vascular system) was 0.0272 mmol/kg/day.

On to `Cc1ccc(/C(=C\CN2CCCC2)c2ccccn2)cc1`, for which the outcome under setting [1] was “inactive; no positive results”.

Turning to `CCN(Cc1cccc(S(=O)(=O)O)c1)c1ccc(C(=C2C=CC(=[N+](CC)Cc3cccc(S(=O)(=O)O)c3)C=C2)c2ccccc2S(=O)(=O)[O-])cc1`, the outcome under setting [1] is “inactive; no positive results”.

Regarding `O=S(=O)([O-])[O-].[Cd+2]`, the outcome under setting [1] was inactive.

`CBr`: the outcome under setting [1] was “inactive; no positive results”.

Take `CC(I)C1OCC(CO)O1` (configuration not stated): where the note is “TargetSites_Mouse_Female: harderian gland, pituitary gland”, the Potency is 0.535 mmol/kg/day.

In the case of `Nc1cc(S(=O)(=O)[O-])cc2cc(S(=O)(=O)[O-])c(N=Nc3ccc(-c4ccc(N=Nc5c(S(=O)(=O)[O-])cc6cc(S(=O)(=O)[O-])cc(N)c6c5O)c(O)c4)cc3O)c(O)c12.[Cu].[Cu].[Na+].[Na+].[Na+].[Na+]`, the Potency under setting [2] is 0.788 mmol/kg/day.

In the case of `NS(=O)(=O)c1cc2c(cc1Cl)NCNS2(=O)=O`, under setting [1], the outcome was “inactive; no positive results”.

On to `O=C(O)CN(CC(=O)O)CC(=O)O`, for which, for the setting “TD50_Mouse_Note: TD50 is harmonic mean of more than one positive test, TargetSites_Mouse_Female: kidney”, the Potency was 13.9 mmol/kg/day. The outcome under setting [1] was “inactive; no positive results”.

With `CN(C)C(=O)Nc1cccc(C(F)(F)F)c1`, the outcome under setting [1] was “inactive; no positive results”.

Take `CCCCOCCOCCOCc1cc2c(cc1CCC)OCO2`: under setting [2], the Potency was 0.86 mmol/kg/day. In addition, under setting [1], the outcome was “inactive; no positive results”.

Take `C[C@H](CCC(=O)O)[C@H]1CC[C@H]2[C@@H]3CC[C@@H]4C[C@H](O)CC[C@]4(C)[C@H]3CC[C@]12C`: the outcome under setting [1] was “inactive; no positive results”.

`CC(=O)O[C@]1(C(C)=O)CC[C@H]2[C@@H]3C=C(Cl)C4=CC(=O)[C@@H]5C[C@@H]5[C@]4(C)[C@H]3CC[C@@]21C`: the Potency (TD50_Mouse_Note: TD50 is harmonic mean of more than one positive test, TargetSites_Mouse_Female: liver, stomach) is 0.0525 mmol/kg/day.

With `Oc1ccc(-c2ccccc2)cc1`, the outcome under setting [1] was “inactive; no positive results”.

For the molecule `O=[N+]([O-])c1ccc(Nc2ccc(Nc3ccccc3)c(S(=O)(=O)O)c2)c([N+](=O)[O-])c1`, under setting [1], the outcome was “inactive; no positive results”.

As for `CCOC(N)=O`, under “TD50_Mouse_Note: TD50 is harmonic mean of more than one positive test, greater than ten-fold variation among TD50 values for positive res, TargetSites_Mouse_Female: lung”, the Potency was 0.19 mmol/kg/day.

In the case of `c1ccc2occc2c1`, under setting [3], the Potency is 0.212 mmol/kg/day.

For the molecule `CN=C(NC#N)NCCSCc1nc[nH]c1C`, the outcome under setting [1] was inactive.

With `OC[P+](CO)(CO)CO`, under setting [1], the outcome was “inactive; no positive results”.

In the case of `Nc1ccc2c(c1)C(=O)c1ccccc1C2=O`, under “TD50_Mouse_Note: TD50 is harmonic mean of more than one positive test, TargetSites_Mouse_Female: hematopoietic system, liver”, the Potency was 5.33 mmol/kg/day.

On to `FCC(F)(F)F`, for which, under setting [1], the outcome is “inactive; no positive results”.

As for `CN(N=O)C(=O)N[C@@H]1[C@@H](O)[C@H](O)[C@@H](CO)O[C@@H]1O`, the Potency (TD50_Mouse_Note: positive test results only by intraperitoneal or intravenous injection, TD50 is harmonic mean of more than one positive, TargetSites_Mouse_Female: kidney, lung) is 0.00103 mmol/kg/day.

With `CN(C)N`, where the note is “TD50_Mouse_Note: TD50 is harmonic mean of more than one positive test, TargetSites_Mouse_Female: lung, vascular system”, the Potency was 0.0659 mmol/kg/day.

On to `COc1ccc(C)cc1N`, for which, where the note is “TD50_Mouse_Note: TD50 is harmonic mean of more than one positive test, TargetSites_Mouse_Female: liver, urinary bladder”, the Potency is 0.396 mmol/kg/day.

With `COc1cc(/C=C/C(=O)CC(=O)/C=C/c2ccc(O)c(OC)c2)ccc1O`, under setting [1], the outcome is “inactive; no positive results”.

As to `O=[N+]([O-])c1ccc2c3c(cccc13)CC2`, the Potency (TargetSites_Mouse_Female: liver, ovary) was 0.23 mmol/kg/day.

For the molecule `CC(C)OC(=O)Nc1ccccc1`, the outcome under setting [1] is “inactive; no positive results”.

Regarding `Oc1ccc2c(c1)OCO2`, under setting [5], the Potency is 32.5 mmol/kg/day.

`Cc1ccc(N=Nc2c(O)ccc3ccccc23)c([N+](=O)[O-])c1`: the Potency under setting [6] is 116 mmol/kg/day.

On to `O=c1ccc(=O)[nH][nH]1`, for which, under setting [1], the outcome is “inactive; no positive results”.

Consider `[S-]c1nc2ccccc2s1.[S-]c1nc2ccccc2s1.[Zn+2]`, for which the outcome under setting [1] is “inactive; no positive results”.

For the molecule `Cc1c(N(C)C)c(=O)n(-c2ccccc2)n1C`, the outcome under setting [1] was “inactive; no positive results”.

Take `CC(=O)C(N=Nc1ccc(Cl)cc1Cl)C(=O)Nc1ccc(-c2ccc(NC(=O)C(N=Nc3ccc(Cl)cc3Cl)C(C)=O)c(C)c2)cc1C` (configuration not stated): for the setting “TargetSites_Mouse_BothSexes: no positive results”, the outcome was inactive.

As to `Nc1ccc(-c2ccc(N)cc2)cc1`, the Potency was 0.108 mmol/kg/day. Besides, the Potency (TD50_Mouse_Note: TD50 is harmonic mean of more than one positive test, TargetSites_Mouse_Female: harderian gland, liver, vascular system) was 0.0766 mmol/kg/day.

In the case of `ClCCOCCCl`, the Potency under setting [7] was 0.0818 mmol/kg/day.

Consider `Nc1ccc(Cc2ccc(N)c(Cl)c2)cc1Cl`, for which the Potency under setting [4] is 0.196 mmol/kg/day.

As to `O=NN1CCN(N=O)CC1`, the Potency under setting [5] was 0.025 mmol/kg/day.

Regarding `CSCCC(N)C(=O)O` (configuration not stated), the outcome (TD50_Mouse_Note: no positive results) was “inactive; no positive results”.

Consider `NNCCO`, for which the Potency under setting [7] is 0.00522 mmol/kg/day.

Turning to `NC(N)=S`, the outcome under setting [1] was inactive.

In the case of `O=[N+]([O-])/C=C/c1ccccc1`, the outcome under setting [1] is “inactive; no positive results”.
